Experiments:
Type in all cases: in vivo
[1] = tested on: Abutilon theophrasti Medic.; assay: Bioassay of herbicidal activity in greenhouse (further screening)
How it was run: (§1)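 Visual growth inhibition rating (0–100%; 100 = weeds dead or not emerged) after track-sprayer application of compounds formulated as emulsifiable concentrates. Sprays given 24 h post-sowing (pre-emergence) or at 2–3-leaf (grasses) / 2–4-leaf (broad-leaves) stage, greenhouse-grown plants.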

[2] = tested on: Echinochloa crus-galli (L.) Beauv.; assay: as above
How it was run: as §1

[3] = tested on: Setaria glauca (L.) Beauv.; assay: as above
How it was run: as §1

Zinnia elegans Jacq. = assay: as above
How it was run: as §1

[4] = tested on: broad-leaf weeds and grass weeds; assay: General screening of herbicidal activity in greenhouse; settings: 1000 g a.i./hm^2;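 note: 0 means no visible effect and 100 means all weeds dead or not emerged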
How it was run: as §1

maize = assay: Crop safety study in greenhouse; settings: 7.5-37.5 g a.i./hm^2; pre-emergence and post-emergence application
Source text: (§2) Seeds of soybean, cotton, maize, wheat and rice were sown in nutrition soil in paper pot (9 cm diameter), covered with soil in 1 cm and grown in the greenhouse under good growth conditions (temperature, atmospheric humidity, water supply). The compounds of the present invention as emulsifiable concentrate, were applied in pre-emergence and post-emergence treatment by track sprayer (Engineer Research Ltd., pressure 1.95 kg/cm^2, volume 500 L/hm^2, track speed 1.48 km/h). Pre-emergence treatment was conducted after seeding 24 hours and post-emergence treatment was done when the respective weeds reached predetermined leaf stage (soybean and cotton at 2- to 4-leaf stage and maize, wheat and rice at 3-leaf stage), the state of growth of the respective crops were visually observed to determine the safety in accordance with the following evaluation standard.
(§3) Safety rating scale (%): 0 means no damage to crops; 100 means to kill crops completely.

rice = assay: Crop safety study in greenhouse; settings: 7.5-37.5 g a.i./hm^2; pre-emergence and post-emergence application
Source text: as §2, §3

wheat = assay: Crop safety study in greenhouse; settings: 7.5-37.5 g a.i./hm^2; pre-emergence and post-emergence application
Source text: as §2, §3

## CC(C)C(=O)OCC1(C)CC(c2cc(-n3c(=O)cc(C(F)(F)F)n(C)c3=O)c(F)cc2Cl)=NO1 (stereo not shown) [Compound 46]
[1]; dose 7.5 g a.i./hm^2
  Growth inhibition rate, Post-emergence treatment, Abutilon theophrasti Medic.: 98%
  Growth inhibition rate, Pre-emergence treatment, Abutilon theophrasti Medic.: 50%
[1]; dose 15 g a.i./hm^2
  Growth inhibition rate, Post-emergence treatment, Abutilon theophrasti Medic.: 100%
  Growth inhibition rate, Pre-emergence treatment, Abutilon theophrasti Medic.: 100%
[1]; dose 37.5 g a.i./hm^2
  Growth inhibition rate, Post-emergence treatment, Abutilon theophrasti Medic.: 100%
  Growth inhibition rate, Pre-emergence treatment, Abutilon theophrasti Medic.: 100%
[1]; dose 150 g a.i./hm^2
  Growth inhibition rate, Post-emergence treatment, Abutilon theophrasti Medic.: 100%
  Growth inhibition rate, Pre-emergence treatment, Abutilon theophrasti Medic.: 100%
[1]; dose 600 g a.i./hm^2
  Growth inhibition rate, Post-emergence treatment, Abutilon theophrasti Medic.: 100%
  Growth inhibition rate, Pre-emergence treatment, Abutilon theophrasti Medic.: 100%
[2]; dose 7.5 g a.i./hm^2
  Growth inhibition rate, Post-emergence treatment, Echinochloa crus-galli (L.) Beauv.: 20%
  Growth inhibition rate, Pre-emergence treatment, Echinochloa crus-galli (L.) Beauv.: 10%
[2]; dose 15 g a.i./hm^2
  Growth inhibition rate, Post-emergence treatment, Echinochloa crus-galli (L.) Beauv.: 25%
  Growth inhibition rate, Pre-emergence treatment, Echinochloa crus-galli (L.) Beauv.: 15%
[2]; dose 37.5 g a.i./hm^2
  Growth inhibition rate, Post-emergence treatment, Echinochloa crus-galli (L.) Beauv.: 30%
  Growth inhibition rate, Pre-emergence treatment, Echinochloa crus-galli (L.) Beauv.: 50%
[2]; dose 150 g a.i./hm^2
  Growth inhibition rate, Post-emergence treatment, Echinochloa crus-galli (L.) Beauv.: 75%
  Growth inhibition rate, Pre-emergence treatment, Echinochloa crus-galli (L.) Beauv.: 95%
[2]; dose 600 g a.i./hm^2
  Growth inhibition rate, Post-emergence treatment, Echinochloa crus-galli (L.) Beauv.: 98%
  Growth inhibition rate, Pre-emergence treatment, Echinochloa crus-galli (L.) Beauv.: 100%
[3]; dose 7.5 g a.i./hm^2
  Growth inhibition rate, Post-emergence treatment, Setaria glauca (L.) Beauv.: 45%
  Growth inhibition rate, Pre-emergence treatment, Setaria glauca (L.) Beauv.: 75%
[3]; dose 15 g a.i./hm^2
  Growth inhibition rate, Post-emergence treatment, Setaria glauca (L.) Beauv.: 55%
  Growth inhibition rate, Pre-emergence treatment, Setaria glauca (L.) Beauv.: 60%
[3]; dose 37.5 g a.i./hm^2
  Growth inhibition rate, Post-emergence treatment, Setaria glauca (L.) Beauv.: 55%
  Growth inhibition rate, Pre-emergence treatment, Setaria glauca (L.) Beauv.: 95%
[3]; dose 150 g a.i./hm^2
  Growth inhibition rate, Post-emergence treatment, Setaria glauca (L.) Beauv.: 80%
  Growth inhibition rate, Pre-emergence treatment, Setaria glauca (L.) Beauv.: 100%
[3]; dose 600 g a.i./hm^2
  Growth inhibition rate, Post-emergence treatment, Setaria glauca (L.) Beauv.: 100%
  Growth inhibition rate, Pre-emergence treatment, Setaria glauca (L.) Beauv.: 100%
Zinnia elegans Jacq.; dose 7.5 g a.i./hm^2
  Growth inhibition rate, Post-emergence treatment, Zinnia elegans Jacq.: 98%
  Growth inhibition rate, Pre-emergence treatment, Zinnia elegans Jacq.: 40%
Zinnia elegans Jacq.; dose 15 g a.i./hm^2
  Growth inhibition rate, Post-emergence treatment, Zinnia elegans Jacq.: 98%
  Growth inhibition rate, Pre-emergence treatment, Zinnia elegans Jacq.: 45%
Zinnia elegans Jacq.; dose 37.5 g a.i./hm^2
  Growth inhibition rate, Post-emergence treatment, Zinnia elegans Jacq.: 100%
  Growth inhibition rate, Pre-emergence treatment, Zinnia elegans Jacq.: 95%
Zinnia elegans Jacq.; dose 150 g a.i./hm^2
  Growth inhibition rate, Post-emergence treatment, Zinnia elegans Jacq.: 100%
  Growth inhibition rate, Pre-emergence treatment, Zinnia elegans Jacq.: 100%
Zinnia elegans Jacq.; dose 600 g a.i./hm^2
  Growth inhibition rate, Post-emergence treatment, Zinnia elegans Jacq.: 100%
  Growth inhibition rate, Pre-emergence treatment, Zinnia elegans Jacq.: 100%
[4]
  pre-emergence and post-emergence herbicidal activity against broad-leaf weeds and grass weeds: good
maize
  Crop safety, maize: good safety
rice
  Crop safety, rice: good safety
wheat
  Crop safety, wheat: good safety

## Cn1c(C(F)(F)F)cc(=O)n(-c2cc(C3=NOC(C)(COC(=O)C4CC4)C3)c(Cl)cc2F)c1=O (stereo not shown) [Compound 45]
[1]; dose 7.5 g a.i./hm^2
  Growth inhibition rate, Post-emergence treatment, Abutilon theophrasti Medic.: 98%
  Growth inhibition rate, Pre-emergence treatment, Abutilon theophrasti Medic.: 98%
[1]; dose 15 g a.i./hm^2
  Growth inhibition rate, Post-emergence treatment, Abutilon theophrasti Medic.: 100%
  Growth inhibition rate, Pre-emergence treatment, Abutilon theophrasti Medic.: 100%
[1]; dose 37.5 g a.i./hm^2
  Growth inhibition rate, Post-emergence treatment, Abutilon theophrasti Medic.: 100%
  Growth inhibition rate, Pre-emergence treatment, Abutilon theophrasti Medic.: 95%
[1]; dose 150 g a.i./hm^2
  Growth inhibition rate, Post-emergence treatment, Abutilon theophrasti Medic.: 100%
  Growth inhibition rate, Pre-emergence treatment, Abutilon theophrasti Medic.: 100%
[1]; dose 600 g a.i./hm^2
  Growth inhibition rate, Post-emergence treatment, Abutilon theophrasti Medic.: 100%
  Growth inhibition rate, Pre-emergence treatment, Abutilon theophrasti Medic.: 100%
[2]; dose 7.5 g a.i./hm^2
  Growth inhibition rate, Post-emergence treatment, Echinochloa crus-galli (L.) Beauv.: 15%
  Growth inhibition rate, Pre-emergence treatment, Echinochloa crus-galli (L.) Beauv.: 5%
[2]; dose 15 g a.i./hm^2
  Growth inhibition rate, Post-emergence treatment, Echinochloa crus-galli (L.) Beauv.: 15%
  Growth inhibition rate, Pre-emergence treatment, Echinochloa crus-galli (L.) Beauv.: 10%
[2]; dose 37.5 g a.i./hm^2
  Growth inhibition rate, Post-emergence treatment, Echinochloa crus-galli (L.) Beauv.: 25%
  Growth inhibition rate, Pre-emergence treatment, Echinochloa crus-galli (L.) Beauv.: 20%
[2]; dose 150 g a.i./hm^2
  Growth inhibition rate, Post-emergence treatment, Echinochloa crus-galli (L.) Beauv.: 80%
  Growth inhibition rate, Pre-emergence treatment, Echinochloa crus-galli (L.) Beauv.: 85%
[2]; dose 600 g a.i./hm^2
  Growth inhibition rate, Post-emergence treatment, Echinochloa crus-galli (L.) Beauv.: 100%
  Growth inhibition rate, Pre-emergence treatment, Echinochloa crus-galli (L.) Beauv.: 100%
[3]; dose 7.5 g a.i./hm^2
  Growth inhibition rate, Post-emergence treatment, Setaria glauca (L.) Beauv.: 30%
  Growth inhibition rate, Pre-emergence treatment, Setaria glauca (L.) Beauv.: 70%
[3]; dose 15 g a.i./hm^2
  Growth inhibition rate, Post-emergence treatment, Setaria glauca (L.) Beauv.: 45%
  Growth inhibition rate, Pre-emergence treatment, Setaria glauca (L.) Beauv.: 80%
[3]; dose 37.5 g a.i./hm^2
  Growth inhibition rate, Post-emergence treatment, Setaria glauca (L.) Beauv.: 50%
  Growth inhibition rate, Pre-emergence treatment, Setaria glauca (L.) Beauv.: 95%
[3]; dose 150 g a.i./hm^2
  Growth inhibition rate, Post-emergence treatment, Setaria glauca (L.) Beauv.: 85%
  Growth inhibition rate, Pre-emergence treatment, Setaria glauca (L.) Beauv.: 90%
[3]; dose 600 g a.i./hm^2
  Growth inhibition rate, Post-emergence treatment, Setaria glauca (L.) Beauv.: 98%
  Growth inhibition rate, Pre-emergence treatment, Setaria glauca (L.) Beauv.: 100%
Zinnia elegans Jacq.; dose 7.5 g a.i./hm^2
  Growth inhibition rate, Post-emergence treatment, Zinnia elegans Jacq.: 95%
  Growth inhibition rate, Pre-emergence treatment, Zinnia elegans Jacq.: 20%
Zinnia elegans Jacq.; dose 15 g a.i./hm^2
  Growth inhibition rate, Post-emergence treatment, Zinnia elegans Jacq.: 100%
  Growth inhibition rate, Pre-emergence treatment, Zinnia elegans Jacq.: 20%
Zinnia elegans Jacq.; dose 37.5 g a.i./hm^2
  Growth inhibition rate, Post-emergence treatment, Zinnia elegans Jacq.: 100%
  Growth inhibition rate, Pre-emergence treatment, Zinnia elegans Jacq.: 90%
Zinnia elegans Jacq.; dose 150 g a.i./hm^2
  Growth inhibition rate, Post-emergence treatment, Zinnia elegans Jacq.: 100%
  Growth inhibition rate, Pre-emergence treatment, Zinnia elegans Jacq.: 95%
Zinnia elegans Jacq.; dose 600 g a.i./hm^2
  Growth inhibition rate, Post-emergence treatment, Zinnia elegans Jacq.: 100%
  Growth inhibition rate, Pre-emergence treatment, Zinnia elegans Jacq.: 100%
[4]
  pre-emergence and post-emergence herbicidal activity against broad-leaf weeds and grass weeds: good
maize
  Crop safety, maize: good safety
rice
  Crop safety, rice: good safety
wheat
  Crop safety, wheat: good safety

Reference: patent publication US10550111B2, “Pyrimidine urea compound containing isoxazolines and use thereof” (SHENYANG SINOCHEM AGROCHEMICALS R&D CO., LTD, priority 2014, dated 2020)
